{"source": "paper PMC12586182", "about": "(Frontiers in Oncology, 2025)", "key": {"AN3-CA": {"system": "AN3-CA", "assay": "Cell viability assay (ATPlite)", "assay_type": "cell-based, human", "conditions": "AN3-CA cell line, 72 hours incubation", "procedure": "(§1) Intracellular ATP content was used as an indirect readout of cell number using the ATPlite 1Step bioluminescence assay (Revvity, Groningen, the Netherlands). Cells were seeded in 384-well plates at an optimized density to ensure unrestricted growth and maximal signal at the end of the experiment. After 24 hours of incubation, the starting cell number was determined by adding ATPlite to each well of a control plate and recording luminescence on an Envision multimode reader (Revvity, Waltham, MA, USA) ([4]). Compounds were diluted in DMSO in √10-fold steps from 10 mmol/L stocks to obtain 9-point dilution series. After further 31.6-fold dilution in 20 mmol/L HEPES (pH 7.4), the dilution series were added in duplicate to the cells in the 384-well plates to determine the effect of the compounds on cell viability. Vehicle-treated controls were included to determine maximal cell proliferation. The final DMSO concentration was 0.4% (v/v) in all wells. After incubation for an additional 72 hours, the ATP content was measured in each well using ATPlite. The luminescent signal in inhibitor-treated wells was normalized to vehicle-treated control wells to determine the percentage viability at each concentration. Cell doublings were determined by relating the cell number of vehicle-treated controls to the starting cell number for each cell line. The viability assay of a cell line was repeated when the cell doubling deviated > 2-fold from the historic doubling as determined by multiple independent experiments. The quality of the complete assay was determined by a parallel test with doxorubicin on two cell lines. IC50 values were calculated by fitting a four-parameter logistic model to the percentage viability values using IDBS XLfit5 (IDBS, Guildford, United Kingdom). All curves were visually inspected and submitted to an F-test as implemented in IDBS XLfit5. Curves with an F-value above 1.5 were invalidated and IC50 values were maximized at the highest concentration."}, "KATO III": {"system": "KATO III", "assay": "Cell viability assay (ATPlite)", "assay_type": "cell-based, human", "conditions": "KATO III cell line, 72 hours incubation", "procedure": "as §1"}, "KG-1": {"system": "KG-1", "assay": "Cell viability assay (ATPlite)", "assay_type": "cell-based, human", "conditions": "KG-1 cell line, 72 hours incubation", "procedure": "as §1"}, "RT-4": {"system": "RT-4", "assay": "Cell viability assay (ATPlite)", "assay_type": "cell-based, human", "conditions": "RT-4 cell line, 72 hours incubation", "procedure": "as §1"}, "A-172": {"system": "A-172", "assay": "Cell viability assay (ATPlite)", "assay_type": "cell-based", "conditions": "Homo sapiens; A-172 cell line, 72 hours incubation", "procedure,_shortened": "(§2)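 Cells grew 24 h, then received 9-point √10-fold compound series in duplicate (0.4% DMSO final) for 72 h. ATP content was read by ATPlite luminescence and normalized to vehicle controls as % viability. IC50 came from a four-parameter logistic fit; curves with F-value above 1.5 were invalidated, with IC50 then set at the top concentration.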"}, "ACHN": {"system": "ACHN", "assay": "Cell viability assay (ATPlite)", "assay_type": "cell-based", "conditions": "Homo sapiens; ACHN cell line, 72 hours incubation", "procedure,_shortened": "as §2"}, "AU565": {"system": "AU565", "assay": "Cell viability assay (ATPlite)", "assay_type": "cell-based", "conditions": "Homo sapiens; AU565 cell line, 72 hours incubation", "procedure,_shortened": "as §2"}, "BT-20": {"system": "BT-20", "assay": "Cell viability assay (ATPlite)", "assay_type": "cell-based", "conditions": "Homo sapiens; BT-20 cell line, 72 hours incubation", "procedure,_shortened": "as §2"}, "CCRF-HSB-2": {"system": "CCRF-HSB-2", "assay": "Cell viability assay (ATPlite)", "assay_type": "cell-based", "conditions": "Homo sapiens; CCRF-HSB-2 cell line, 72 hours incubation", "procedure,_shortened": "as §2"}, "Daoy": {"system": "Daoy", "assay": "Cell viability assay (ATPlite)", "assay_type": "cell-based", "conditions": "Homo sapiens; Daoy cell line, 72 hours incubation", "procedure,_shortened": "as §2"}, "HCT 116": {"system": "HCT 116", "assay": "Cell viability assay (ATPlite)", "assay_type": "cell-based", "conditions": "Homo sapiens; HCT 116 cell line, 72 hours incubation", "procedure,_shortened": "as §2"}, "JM-1": {"system": "JM-1", "assay": "Cell viability assay (ATPlite)", "assay_type": "cell-based", "conditions": "Homo sapiens, JM1; JM-1 cell line, 72 hours incubation", "procedure,_shortened": "as §2"}, "LS411N": {"system": "LS411N", "assay": "Cell viability assay (ATPlite)", "assay_type": "cell-based", "conditions": "Homo sapiens, LS-411N; LS411N cell line, 72 hours incubation", "procedure,_shortened": "as §2"}, "NCI-H1650": {"system": "NCI-H1650", "assay": "Cell viability assay (ATPlite)", "assay_type": "cell-based", "conditions": "Homo sapiens; NCI-H1650 cell line, 72 hours incubation", "procedure,_shortened": "as §2"}, "NCI-H1975": {"system": "NCI-H1975", "assay": "Cell viability assay (ATPlite)", "assay_type": "cell-based", "conditions": "Homo sapiens; NCI-H1975 cell line, 72 hours incubation", "procedure,_shortened": "as §2"}, "NCI-H661": {"system": "NCI-H661", "assay": "Cell viability assay (ATPlite)", "assay_type": "cell-based", "conditions": "Homo sapiens; NCI-H661 cell line, 72 hours incubation", "procedure,_shortened": "as §2"}, "RKO": {"system": "RKO", "assay": "Cell viability assay (ATPlite)", "assay_type": "cell-based", "conditions": "Homo sapiens; RKO cell line, 72 hours incubation", "procedure,_shortened": "as §2"}, "SW620": {"system": "SW620", "assay": "Cell viability assay (ATPlite)", "assay_type": "cell-based", "conditions": "Homo sapiens, SW-620; SW620 cell line, 72 hours incubation", "procedure,_shortened": "as §2"}, "U2OS": {"system": "U2OS", "assay": "Cell viability assay (ATPlite)", "assay_type": "cell-based", "conditions": "Homo sapiens; U2OS cell line, 72 hours incubation", "procedure,_shortened": "as §2"}, "MEK2": {"biological_target": "T1, MEK2 (Homo sapiens, UniProt P36507)", "T1 construct": "purchased Carna Biosciences, Inc. 07-42", "assay": "Kinase enzyme activity assay (ELISA, in-house)", "assay_type": "biochemical"}, "SIK3": {"biological_target": "SIK3 (Homo sapiens, UniProt Q9Y2K2)", "sequence (Q9Y2K2 whole entry)": "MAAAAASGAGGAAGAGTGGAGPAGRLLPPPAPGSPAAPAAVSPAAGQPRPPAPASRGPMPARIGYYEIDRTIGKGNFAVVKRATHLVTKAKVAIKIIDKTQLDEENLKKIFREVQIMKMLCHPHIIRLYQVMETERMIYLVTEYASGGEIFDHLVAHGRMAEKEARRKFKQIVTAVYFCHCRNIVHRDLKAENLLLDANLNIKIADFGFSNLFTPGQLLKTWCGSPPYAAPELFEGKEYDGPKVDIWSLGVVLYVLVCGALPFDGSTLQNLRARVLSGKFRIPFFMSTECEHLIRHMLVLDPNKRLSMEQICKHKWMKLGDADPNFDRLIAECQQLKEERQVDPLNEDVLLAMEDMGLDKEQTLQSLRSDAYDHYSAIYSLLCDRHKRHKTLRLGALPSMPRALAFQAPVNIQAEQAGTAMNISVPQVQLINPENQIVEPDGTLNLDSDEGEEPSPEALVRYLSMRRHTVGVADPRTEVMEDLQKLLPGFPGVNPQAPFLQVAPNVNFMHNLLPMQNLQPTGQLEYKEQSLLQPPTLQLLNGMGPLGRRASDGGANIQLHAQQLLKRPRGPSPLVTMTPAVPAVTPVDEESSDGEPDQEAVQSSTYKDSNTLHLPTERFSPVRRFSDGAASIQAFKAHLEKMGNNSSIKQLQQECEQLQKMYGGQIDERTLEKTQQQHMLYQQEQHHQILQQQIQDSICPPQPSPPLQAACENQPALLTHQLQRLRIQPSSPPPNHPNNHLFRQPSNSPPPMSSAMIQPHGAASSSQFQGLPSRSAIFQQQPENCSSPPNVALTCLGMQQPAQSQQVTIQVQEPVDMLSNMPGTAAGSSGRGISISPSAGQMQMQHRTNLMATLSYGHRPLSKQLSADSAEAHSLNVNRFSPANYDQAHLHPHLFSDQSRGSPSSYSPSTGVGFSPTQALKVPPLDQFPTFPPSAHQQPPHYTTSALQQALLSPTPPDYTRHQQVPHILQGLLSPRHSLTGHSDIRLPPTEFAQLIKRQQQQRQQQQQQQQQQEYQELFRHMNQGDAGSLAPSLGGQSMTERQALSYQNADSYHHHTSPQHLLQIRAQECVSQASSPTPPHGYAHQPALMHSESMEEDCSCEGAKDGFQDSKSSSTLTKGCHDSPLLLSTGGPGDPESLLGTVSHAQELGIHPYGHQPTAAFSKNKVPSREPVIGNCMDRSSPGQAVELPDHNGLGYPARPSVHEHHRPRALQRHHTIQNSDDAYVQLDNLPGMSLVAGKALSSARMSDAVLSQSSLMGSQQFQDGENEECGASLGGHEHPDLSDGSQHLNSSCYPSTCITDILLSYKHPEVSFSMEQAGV", "assay": "Competition binding assay (Eurofins DiscoverX)", "description": "(§3) Inhibition of MLK1 and B-RAF at K M,ATP was determined in a radiometric assay using ^32P-labeled ATP at Eurofins Cerep SA (Celle-Lévescault, France). Interaction with SIK3 was assessed in a competition binding assay at Eurofins DiscoverX LLC (San Diego, CA, USA)."}, "activated B-RAF": {"biological_target": "activated B-RAF (Homo sapiens, UniProt P15056)", "sequence (P15056 whole entry)": "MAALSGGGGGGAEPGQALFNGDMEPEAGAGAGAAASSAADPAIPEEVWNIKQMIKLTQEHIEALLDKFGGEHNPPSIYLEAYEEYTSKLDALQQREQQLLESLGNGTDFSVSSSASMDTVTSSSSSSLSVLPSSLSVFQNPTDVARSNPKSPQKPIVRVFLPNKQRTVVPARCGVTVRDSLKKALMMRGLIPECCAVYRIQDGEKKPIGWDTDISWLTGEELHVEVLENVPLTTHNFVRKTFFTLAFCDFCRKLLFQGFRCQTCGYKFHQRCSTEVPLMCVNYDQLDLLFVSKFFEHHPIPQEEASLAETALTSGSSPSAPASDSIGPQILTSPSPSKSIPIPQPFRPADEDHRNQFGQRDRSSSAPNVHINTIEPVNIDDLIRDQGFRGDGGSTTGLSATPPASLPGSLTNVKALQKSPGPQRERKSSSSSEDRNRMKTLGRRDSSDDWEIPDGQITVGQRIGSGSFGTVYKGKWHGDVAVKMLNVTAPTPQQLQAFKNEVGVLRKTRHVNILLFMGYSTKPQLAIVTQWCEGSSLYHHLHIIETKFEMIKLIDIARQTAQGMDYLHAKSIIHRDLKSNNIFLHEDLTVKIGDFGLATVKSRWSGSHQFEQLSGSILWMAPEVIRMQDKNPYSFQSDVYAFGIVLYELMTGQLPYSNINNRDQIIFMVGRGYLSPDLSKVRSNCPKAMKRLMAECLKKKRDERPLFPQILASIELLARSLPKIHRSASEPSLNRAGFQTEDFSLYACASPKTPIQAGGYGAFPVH", "assay": "Surface plasmon resonance binding (Biacore 1S+)"}, "B-RAF [1]": {"biological_target": "T2, B-RAF (Homo sapiens, UniProt P15056)", "assay": "Kinase enzyme activity assay at 1 mmol/L ATP (Carna)", "description": "(§4) Inhibition of MLK1 and B-RAF at K M,ATP was determined in a radiometric assay using ^32P-labeled ATP at Eurofins Cerep SA (Celle-Lévescault, France)."}, "B-RAF [V600E]": {"biological_target": "B-RAF [V600E] (Homo sapiens, UniProt P15056, V600E)", "sequence (P15056 whole entry V600E)": "as the sequence (P15056 whole entry) above, with V600E counted along it", "assay": "Kinase enzyme activity assay at 1 mmol/L ATP (Carna)", "description": "as §4"}, "MLK1": {"biological_target": "MLK1 (Homo sapiens, UniProt P80192)", "sequence (P80192 whole entry)": "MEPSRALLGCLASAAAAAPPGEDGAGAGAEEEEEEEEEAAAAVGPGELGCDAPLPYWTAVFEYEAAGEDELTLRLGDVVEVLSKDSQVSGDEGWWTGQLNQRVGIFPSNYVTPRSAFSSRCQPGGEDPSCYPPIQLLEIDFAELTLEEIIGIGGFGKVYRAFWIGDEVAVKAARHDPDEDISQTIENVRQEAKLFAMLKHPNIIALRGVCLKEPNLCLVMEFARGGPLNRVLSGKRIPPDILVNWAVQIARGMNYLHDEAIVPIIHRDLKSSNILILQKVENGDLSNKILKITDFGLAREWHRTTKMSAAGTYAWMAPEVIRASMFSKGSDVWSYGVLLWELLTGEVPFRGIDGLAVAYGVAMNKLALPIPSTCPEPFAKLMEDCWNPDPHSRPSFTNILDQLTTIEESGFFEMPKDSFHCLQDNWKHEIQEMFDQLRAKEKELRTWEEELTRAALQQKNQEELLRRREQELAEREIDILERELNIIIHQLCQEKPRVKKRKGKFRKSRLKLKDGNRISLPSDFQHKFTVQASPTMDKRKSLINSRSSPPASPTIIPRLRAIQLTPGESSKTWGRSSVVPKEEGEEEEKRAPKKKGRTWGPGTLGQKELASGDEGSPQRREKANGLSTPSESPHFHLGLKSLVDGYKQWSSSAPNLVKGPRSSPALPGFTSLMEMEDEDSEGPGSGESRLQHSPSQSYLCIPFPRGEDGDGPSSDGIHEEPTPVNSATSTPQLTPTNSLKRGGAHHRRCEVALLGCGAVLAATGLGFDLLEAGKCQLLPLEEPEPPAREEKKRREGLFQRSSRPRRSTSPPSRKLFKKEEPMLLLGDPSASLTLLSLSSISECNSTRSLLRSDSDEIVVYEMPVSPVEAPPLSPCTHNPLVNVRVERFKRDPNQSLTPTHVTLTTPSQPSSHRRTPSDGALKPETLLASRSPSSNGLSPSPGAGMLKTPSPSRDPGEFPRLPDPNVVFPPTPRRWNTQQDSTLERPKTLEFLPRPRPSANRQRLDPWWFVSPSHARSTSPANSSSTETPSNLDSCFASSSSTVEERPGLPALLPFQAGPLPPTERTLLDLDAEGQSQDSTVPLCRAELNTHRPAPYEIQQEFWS", "assay": "Radiometric kinase assay with 32P-labeled ATP (Eurofins)", "description": "as §3"}, "B-RAF [2]": {"biological_target": "T2, B-RAF", "assay": "Radiometric kinase assay with 32P-labeled ATP (Eurofins), cascade assay", "description": "as §4"}}, "note": "Where two headings read alike, the source gives them in different places.", "data": [{"smiles": "O=C(c1ccc(Oc2ccccc2)cc1Cl)c1c[nH]c2ncnc(N[C@@H]3CC[C@@H](CO)OC3)c12", "note": "[nemtabrutinib]", "values": [{"measurement": "IC50", "setting": "AN3-CA", "value": 1.19, "unit": "µM"}, {"measurement": "IC50", "setting": "AN3-CA; Homo sapiens, AN3-CA, 72 h", "value": 1.1, "unit": "µM"}, {"measurement": "IC50", "setting": "KATO III; Homo sapiens, KATO III, 72 h", "value": 1.1, "unit": "µM"}, {"measurement": "IC50", "setting": "KATO III", "value": 1.12, "unit": "µM"}, {"measurement": "IC50", "setting": "KG-1; Homo sapiens, KG-1, 72 h", "value": 1.4, "unit": "µM"}, {"measurement": "IC50", "setting": "KG-1", "value": 1.41, "unit": "µM"}, {"measurement": "IC50", "setting": "RT-4; Homo sapiens, RT-4, 72 h", "value": 1.7, "unit": "µM"}, {"measurement": "IC50", "setting": "RT-4", "value": 1.7, "unit": "µM"}, {"measurement": "IC50", "setting": "A-172", "value": 10.6, "unit": "µM"}, {"measurement": "IC50", "setting": "ACHN", "value": 2.29, "unit": "µM"}, {"measurement": "IC50", "setting": "AU565", "value": 3.26, "unit": "µM"}, {"measurement": "IC50", "setting": "BT-20", "value": 14.5, "unit": "µM"}, {"measurement": "IC50", "setting": "CCRF-HSB-2", "value": 0.37, "unit": "µM"}, {"measurement": "IC50", "setting": "Daoy", "value": 7.17, "unit": "µM"}, {"measurement": "IC50", "setting": "HCT 116", "value": 1.65, "unit": "µM"}, {"measurement": "IC50", "setting": "JM-1", "value": 23.8, "unit": "µM"}, {"measurement": "IC50", "setting": "LS411N", "value": 0.767, "unit": "µM"}, {"measurement": "IC50", "setting": "NCI-H1650", "value": 9.8, "unit": "µM"}, {"measurement": "IC50", "setting": "NCI-H1975", "value": 2.31, "unit": "µM"}, {"measurement": "IC50", "setting": "NCI-H661", "value": 2.38, "unit": "µM"}, {"measurement": "IC50", "setting": "RKO", "value": 1.22, "unit": "µM"}, {"measurement": "IC50", "setting": "SW620", "value": 2.45, "unit": "µM"}, {"measurement": "IC50", "setting": "U2OS", "value": 2.67, "unit": "µM"}, {"measurement": "IC50", "setting": "MEK2; 1 mmol/L ATP, read-out: IC50, MEK2", "value": 0.494, "unit": "µM"}, {"measurement": "IC50", "setting": "MEK2; IC50, MEK2", "value": 0.0095, "unit": "µM"}, {"measurement": "IC50", "setting": "SIK3", "value": "> 10", "unit": "µM"}, {"measurement": "Binding to SIK3", "setting": "SIK3; competition binding assay", "value": "No binding"}, {"measurement": "difference in affinity, MEK1 versus B-RAF", "setting": "activated B-RAF; SPR K D B-RAF versus K D MEK1", "value": 120, "unit": "fold"}, {"measurement": "log (kd)", "setting": "activated B-RAF; SPR, B-RAF", "value": -1.26}, {"measurement": "log(ka)", "setting": "activated B-RAF; SPR, B-RAF", "value": 4.66}, {"measurement": "t1/2", "setting": "activated B-RAF; SPR, B-RAF", "value": 12.5, "unit": "s"}, {"measurement": "IC50", "setting": "B-RAF [1]", "value": 0.335, "unit": "µM"}, {"measurement": "IC50", "setting": "B-RAF [V600E]", "value": 0.22, "unit": "µM"}, {"measurement": "IC50", "setting": "MLK1", "value": 4.87, "unit": "µM"}, {"measurement": "Inhibition of MLK1", "setting": "MLK1", "value": "did not inhibit"}, {"measurement": "IC50", "setting": "B-RAF [2]", "value": 0.073, "unit": "µM"}]}]}
